The test system of test [1] is NMDA-induced brain lesion in C57BL/6 mice. Kind of test: NMDA-induced brain lesion after ICV pretreatment, wildtype mice. The settings on record: for brain lesion volume (NMDA-induced): lesion at 48 h, vs NMDA-lesion and vehicle-NMDA groups. It counts as in vivo. The protocol: (§1) Following protocols approved by the Institutional Animal Care and Use Committee of Johns Hopkins University, adult male C57BL/6 mice (Charles River, Wilmington, Mass.) and EP1^−/−, weighing 20-25 g were used in this study.
Weight and rectal temperature of each mouse was recorded before the surgical procedure. The mouse was subjected to intracerebroventricular (ICV) injection of vehicle or freshly prepared compound A or compound B followed by unilateral intrastriatal injection of NMDA, prepared in phosphate buffer saline (pH˜7.2) (J. Neurosci. 1997, 17, 6908-6917). In brief, each mouse was anesthetized, maintained at 1.0% halothane, and mounted on a stereotaxic frame (Stoelting Co., Wood Dale, Ill.). Varying body-weight (BW) doses of compound A (0.1 nmol/kg BW, n=8; 1 nmol/kg BW, n=12; 10 nmol/kg BW, n=8) or compound B (0.1 nmol/kg BW, n=8; 1 nmol/kg BW, n=12; 10 nmol/kg BW, n=9) were injected into the right lateral ventricle (stereotaxic coordinates PA-0.5 mm, lateral-1.0 mm from bregma, and ventral-2.5 mm relative to dura) over 30 sec, with the help of 1-μL Hamilton® syringe, and the needle was left in place for an additional 2 min. Twenty minutes later, 0.3 μl of 50 mM NMDA was injected into the right striatum over 2 min and the needle was left in place for additional 5 min. The NMDA-lesion control group (n=12) received 0.3 μL NMDA, and the vehicle-NMDA control group (n=11) received 0.2 μL vehicle ICV, followed by 0.3 μL NMDA in the striatum. Sham control and vehicle control groups were treated similarly with saline. After injections, mice were placed in a thermoregulated chamber maintained at 31° C. and returned to their cages after full recovery from anesthesia. Throughout the experimental procedure, rectal temperature of mice was monitored and maintained at 37.0±0.5° C.
At 48 h […], weight and rectal temperature were recorded and brains were harvested and immediately frozen in 2-methyl butane (pre-cooled over dry ice). Brain sections were cut on a cryostat and stained with cresyl violet to estimate lesion volume. Images of the brain sections were taken and analyzed with the help of SigmaScan Pro 5.0 (Systat, Inc., Point Richmond, Calif.).
Data were analyzed using SigmaStat 2.0 (Systat), and significance level was set at p<0.05. Statistical analysis was performed by Student's t-test. All data are reported as means±s.d.

Test [2] has as its system NMDA-induced toxicity in EP1−/− mice. Put plainly: NMDA-induced brain lesion after ICV treatment, EP1−/− mice. It counts as in vivo. The settings on record: ICV treatment of EP1−/− mice, compared to the untreated EP1−/− group. Here is the method: as §1
Weight and rectal temperature of each mouse was recorded before the surgical procedure. The mouse was subjected to intracerebroventricular (ICV) injection of vehicle or freshly prepared compound A or compound B followed by unilateral intrastriatal injection of NMDA, prepared in phosphate buffer saline (pH˜7.2) (J. Neurosci. 1997, 17, 6908-6917). In brief, each mouse was anesthetized, maintained at 1.0% halothane, and mounted on a stereotaxic frame (Stoelting Co., Wood Dale, Ill.). […] Throughout the experimental procedure, rectal temperature of mice was monitored and maintained at 37.0±0.5° C.
At 48 h […], weight and rectal temperature were recorded and brains were harvested and immediately frozen in 2-methyl butane (pre-cooled over dry ice). […] Images of the brain sections were taken and analyzed with the help of SigmaScan Pro 5.0 (Systat, Inc., Point Richmond, Calif.).
Data were analyzed using SigmaStat 2.0 (Systat), and significance level was set at p<0.05. […]

Setting [3] is: 0.1 nmol/kg BW ICV pretreatment 20 min before intrastriatal 50 mM NMDA.
The mark [4] stands for this setting: 1 nmol/kg BW ICV pretreatment 20 min before intrastriatal 50 mM NMDA.
Where [5] appears, read: 10 nmol/kg BW ICV pretreatment 20 min before intrastriatal 50 mM NMDA.

Take `CCCC[C@H](C)C[C@H](O)/C=C/[C@H]1[C@H](O)CC(=O)[C@@H]1CC(=O)C1CCC(C(=O)O)CC1` (stereo partly drawn) [compound A, 4-({(1R,2R,3R)-3-hydroxy-2-[(1E,3S,5S)-3-hydroxy-5-methylnon-1-enyl]-5-oxocyclopentyl}acetyl)cyclohexanecarboxylic acid, reference compound]: the “brain lesion volume (NMDA-induced)” value is reported as “non-significant increases” in test [1] (setting [3]), “non-significant increases” in test [1] (setting [4]) and “significant increase” in test [1] (setting [5]).
Take `CC(C)CN(c1ccc(C(F)(F)F)cc1OCc1ccc(/C=C/C(=O)O)cc1)S(=O)(=O)c1ccco1` [compound B, (2E)-3-(4-{[2-[(2-furylsulfonyl)(isobutyl)amino]-5-(trifluoromethyl)phenoxy]methyl}phenyl)acrylic acid]: the “brain lesion volume (NMDA-induced)” value in test [1] (setting [3]) is reported as “No significant protection”; in test [1] (setting [4]) it was “significantly decreased”; in test [1] (setting [5]), “significantly decreased”. Moreover, the “toxicity (lesion volume) of the 10 nmol/kg BW dose compared to the 1 mmol/kg BW group” value in test [1] (10 nmol/kg BW ICV pretreatment, NMDA-induced lesion) was “slight, but not significant, toxicity”. In test [2], the “lesion volume to NMDA-induced toxicity in EP1−/− mice” value is listed as “no significant difference”.

For the origin of these results see patent US20080312326A1, “Method for the Prevention and/or Treatment of Neurodegenerative Diseases Characterized by Administering and Ep1 Receptor Antagonist” (THE JOHN HOPKINS UNIVERSITY, priority 2005, published 2008).
